The nature of data set [1]: Compatibility of an anionic dye alone with an aqueous CHG solution (Example 1). The format is physicochemical. The settings on record: 0.13% w/v dye in distilled water, no cationic excipient; after two drops. As for the experimental part: The compatibility of an anionic dye alone with an aqueous chlorhexidine gluconate (CHG) solution (i.e., without the addition of a cationic excipient) was tested. A 0.13% w/v anionic dye solution was prepared by dissolving 0.13 g FD&C Yellow 6 in 100 ml of distilled water. A 20% w/v aqueous CHG solution was then added drop wise to the dye solution.

A short description of data set [2]: Three-month room temperature storage of aqueous CHG / cationic dye solutions (Examples 7, 8). The format is physicochemical. Conditions: 2.0% w/v CHG and 0.05% w/v dye in water. The method, then: The chemical structure and chemical category of each of these dyes are presented below. Crystal violet, malachite green, and Victoria pure blue BO all belong to the same chemical family, triarylmethane. Bismark brown and acriflavine each belong to a different chemical family, azo and acridine, respectively. [drawing 3] [drawing 4]
Aqueous solutions of 2.0% w/v CHG and 0.05% w/v dye were prepared for each of the dyes indicated above to test the stability of the solutions. Each aqueous solution was prepared using a Class A 100 ml volumetric flask, in which 0.050 grams of dye were dissolved in 30.0 ml of distilled water. Additionally, 10.6 g of 20% w/v aqueous CHG solution was added to the flask. The solution was then brought up to volume with distilled water. The solutions were stored for three months at room temperatures.
In particular, the dye tested was azure C, which is a cationic dye that belongs to the thiazin family. Its positive charge comes from a tertiary sulfur atom instead of a quaternary nitrogen atom. The chemical structure and chemical category of azure C is presented below. [drawing 5]
An aqueous solution of 2.0% w/v CHG and 0.05% w/v azure C dye was prepared to test the stability of the solution. The solution was prepared similar to the preparation of the solutions in Example 7. […]

Regarding `O=S(=O)([O-])c1ccc(N=Nc2c(O)ccc3cc(S(=O)(=O)[O-])ccc23)cc1.[Na+].[Na+]` [FD&C Yellow 6, FD&C Yellow No. 6 (Sunset Yellow FCF)], in data set [1], the “precipitate on drop wise addition of 20% w/v aqueous CHG solution to the dye solution” value is “precipitate was formed”.

`CNc1ccc2nc3ccc(N)cc3[s+]c2c1.[Cl-]` [azure C]: the “time solution stable and dye compatible” value in data set [2] (room temperature) was “at least three months”. Also, in data set [2] (stored three months at room temperature), the visible precipitate entry is “no visible precipitate”.

These data come from US20080108674A1, “CATIONIC ANTISEPTIC AND DYE FORMULATION” (ENTURIA, INC., priority 2006, published 2008).
